Assay [1] has as its system DT40. In words: Induction of P2Y mediated TRPC5 S-nitrosylation in chicken DT40 cells assessed as increase in Ca2+ level from extracellular space at 100 uM in presence of PLC-beta inhibitor U73122. In kind it is cell-based.
The target in assay [2] is T1, Short transient receptor potential channel 5 (Homo sapiens) (UniProt Q9UL62).
T1 sequence (whole entry): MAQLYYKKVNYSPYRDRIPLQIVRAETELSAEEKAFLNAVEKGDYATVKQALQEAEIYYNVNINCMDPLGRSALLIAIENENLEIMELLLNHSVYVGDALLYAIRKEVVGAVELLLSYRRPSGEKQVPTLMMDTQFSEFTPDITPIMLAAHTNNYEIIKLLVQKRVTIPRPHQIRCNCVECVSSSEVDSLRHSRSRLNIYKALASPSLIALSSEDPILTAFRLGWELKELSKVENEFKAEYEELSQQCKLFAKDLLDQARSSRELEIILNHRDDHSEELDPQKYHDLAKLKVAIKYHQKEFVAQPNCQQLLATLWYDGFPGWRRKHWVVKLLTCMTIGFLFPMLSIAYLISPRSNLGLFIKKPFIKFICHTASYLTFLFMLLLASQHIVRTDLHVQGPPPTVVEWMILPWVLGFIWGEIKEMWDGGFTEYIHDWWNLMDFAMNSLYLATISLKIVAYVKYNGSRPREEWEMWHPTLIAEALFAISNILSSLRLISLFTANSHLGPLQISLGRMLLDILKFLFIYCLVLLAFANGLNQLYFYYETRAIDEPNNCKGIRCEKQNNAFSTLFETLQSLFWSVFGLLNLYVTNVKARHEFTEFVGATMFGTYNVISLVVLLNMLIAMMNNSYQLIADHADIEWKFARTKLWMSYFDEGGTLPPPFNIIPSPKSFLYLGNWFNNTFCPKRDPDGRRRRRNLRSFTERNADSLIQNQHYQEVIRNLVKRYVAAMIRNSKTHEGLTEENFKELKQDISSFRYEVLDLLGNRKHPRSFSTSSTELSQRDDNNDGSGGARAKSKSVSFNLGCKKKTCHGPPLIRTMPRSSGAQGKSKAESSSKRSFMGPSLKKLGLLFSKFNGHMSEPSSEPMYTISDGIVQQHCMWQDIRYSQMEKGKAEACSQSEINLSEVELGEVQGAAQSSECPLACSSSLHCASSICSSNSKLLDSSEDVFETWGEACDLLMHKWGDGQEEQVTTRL
The assay can be described thus: Induction of S-nitrosylation of TRPC5 in HEK cells assessed as increase in Ca2+ level from extracellular space at 50 uM. To be noted: HEK293. In kind it is cell-based.

Assay [3] has as its target T1, Short transient receptor potential channel 5 (Homo sapiens). The assay can be described thus: Induction of S-nitrosylation of TRPC5 in HEK cells assessed as increase in Ca2+ level from extracellular space at 5 mM extracellular administration. In kind it is cell-based. To be noted: HEK293.
Assay [4] has the same target. The assay can be described thus: Induction of S-nitrosylation of TRPC5 in HEK cells assessed as increase in Ca2+ level from extracellular space at 10 uM. In kind it is cell-based. The settings on record: HEK293.
Assay [5] deals with BAEC. In words: Inhibition of NO production in BAEC at 300 uM. In kind it is functional, cell-based. The settings on record: Bos taurus.
Assay [6] has as its system BAEC. In words: Inhibition of NO production in BAEC assessed as inhibition of Ca2+ influx at 300 uM. The settings on record: Bos taurus. In kind it is functional, cell-based.
The target of assay [7] is T1, Short transient receptor potential channel 5 (Homo sapiens). The assay can be described thus: Induction of S-nitrosylation of TRPC5 in HEK cells assessed as increase in Ca2+ level from extracellular space at 5 mM. In kind it is cell-based. The settings on record: HEK293.
Assay [8] has as its system BAEC. The assay can be described thus: Inhibition of NO production in BAEC assessed as inhibition of Ca2+ influx at 1 mM. To be noted: Bos taurus. In kind it is functional, cell-based.
Assay [9] concerns BAEC. The assay can be described thus: Inhibition of NO production in BAEC assessed as inhibition of Ca2+ influx at 10 mM. In kind it is functional, cell-based. The settings on record: Bos taurus.
For assay [10], the target named is T1, Short transient receptor potential channel 5 (Homo sapiens). In words: Induction of S-nitrosylation of TRPC5 in HEK cells assessed as increase in Ca2+ level from extracellular space at 1 mM. In kind it is cell-based. The settings on record: HEK293.
Assay [11] shares this target. The assay can be described thus: Induction of S-nitrosylation of TRPC5 in HEK cells assessed as inhibition of incorporation of DTNB-2Bio at 30 uM. In kind it is cell-based. To be noted: HEK293.

The structures appear in SMILES notation. Activity calls are given as the source filed them. The calls are words filed in the database; no cut-off is given here.

Turning to `Nc1ncnc2c1ncn2[C@@H]1O[C@H](COP(=O)(O)OP(=O)(O)OP(=O)(O)O)[C@@H](O)[C@H]1O`, in assay [1], the outcome was inactive.

With `c1cc(SSc2ccncc2)ccn1`, the result in assay [2] was Active.

On to `O=C(O)c1cc(SSc2ccc([N+](=O)[O-])c(C(=O)O)c2)ccc1[N+](=O)[O-]`, for which the outcome in assay [2] was Active.

As to `C[N+](C)(C)CCSS(C)(=O)=O`, in assay [3], the outcome was inactive.

Consider `O=c1onc2cnc3ccccc3n12`, for which the result in assay [4] was inactive.

For the molecule `COC(=O)[C@@H](N)CCCNC(=N)N[N+](=O)[O-]`, the inhibition result in assay [5] and in [6] was “Active” in each case.

In the case of `CC/C(=C\C(=N\O)C(N)=O)C(C)[N+](=O)[O-]` (racemic), in assay [7], the result was Active.

As for `CS(=O)(=O)SCCN`, the outcome in [3] was Active.

In the case of `O=C1O[C@H]([C@@H](O)CO)C(O)=C1O`, the inhibition result in assay [8] is “Active”.

`CC(=O)N[C@@H](CS)C(=O)O`: in [9], the inhibition entry was “Active”.

As to `[NH-]c1c[n+](N2CCOCC2)no1`, the result in assay [10] was Active.

With `O=C(CCCC[C@@H]1SC[C@@H]2NC(=O)N[C@@H]21)NCCCCCNC(=O)c1cc(SSc2ccc([N+](=O)[O-])c(C(=O)NCCCCCNC(=O)CCCC[C@@H]3SC[C@@H]4NC(=O)N[C@@H]43)c2)ccc1[N+](=O)[O-]`, the result in [11] was Active.

(Values after ChEMBL document CHEMBL1250444, “Nitric oxide activates TRP channels by cysteine S-nitrosylation” (Nat Chem Biol, 2006).)
